# Results taken from article PMC12165799, “Antimicrobial peptide developed with machine learning sequence optimization targets drug resistant Staphylococcus aureus in mice” (The Journal of Clinical Investigation, 2025).
# Where two headings read alike, the source gives them in different places.
# How the values were obtained:
# [1] = system: S. aureus MW2 biofilm formation; settings: for Biofilm formation, biomass (crystal violet), percentage of untreated / Biofilm formation, live-cell viability (XTT), percentage of untreated: 24 hours
# Method: 349 Prevention of S. aureus MW2 biofilm formation
# 350 We evaluated the ability of the citropin 1.1-derived peptides to inhibit biofilm formation
# 351 following an established protocol with modifications (5). In short, we prepared exponential
# 352 cultures of S. aureus MW2 (adjusted to OD600 = 0.01) in TSB medium (supplemented with 0.2%
# 353 glucose) from overnight cultures. We added 90 µl of the bacterial culture to 10 µl of serially diluted
# 354 10× peptide solution in flat-bottomed 96-well polystyrene microtiter plates (Cat no. Corning 3595,
# We used TSB medium containing
# 356 bacteria with water as the positive control, while TSB media with sterile water served as the
# 357 negative control. After incubation, we carefully removed the TSB medium and washed the wells
# 358 with PBS (Gibco, MD, USA) to remove loosely attached planktonic cells. We quantified the
# 359 biomass by staining the biofilms with crystal violet following an established protocol and
# 360 quantitated the concentration of peptide that inhibits 50% of biofilm formation (MBIC50)(8). We
# 361 measured the live cell count of the biofilms using XTT dye [2,3-bis(2-methyloxy-4-nitro-5-
# 362 sulfophenyl)-2H-tertazolium-5-carboxanilide] (ATCC, VA, USA).
# [2] = system: S. aureus MW2 skin infection; experiment: Skin-abraded murine infection, prophylactic (acute) model, bacterial load; format: in vivo, mice; settings: for Reduction of S. aureus MW2 burden vs vehicle, prophylactic model: single treatment 10 minutes after inoculation, n = 12; for Reduction of S. aureus MW2 burden, repeat of prophylactic model: n = 8
# Method: 599 In vivo murine skin infection and treatment
# 600 We used a topical skin-abraded murine infection model with minor modifications to test
# 601 the in vivo efficacy of the CIT-8 peptide (25). We performed all mouse studies following the
# 602 protocol approved by the Institutional Animal Care and Use Committee. In brief, we anesthetized
# 603 female C57BL/6 mice (6 weeks) (Jackson Laboratory, Bar Harbor, ME, USA) with ketamine-
# 604 xylazine (90 mg/kg ketamine and 10 mg/kg xylazine) via intraperitoneal injection. We shaved the
# 605 dorsal side of the mice in the middle of the back (area=2 cm2). To disrupt skin integrity, we tape-
# 606 stripped with Tensoplast® seven times in succession, replacing the tape each time, resulting in
# 607 visibly damaged skin. We infected the damaged skin area with 1 × 10^7 CFU of S. aureus MW2
# 608 (exponential phase bacteria in PBS) with an inoculum of 50 µl using a pipette tip. Ten minutes
# 609 (prophylactic model) and 24 h (established model) after bacterial inoculation, we applied 30 mg
# 610 of 1 and 2% (w/w) CIT-8 ointment in a white petroleum jelly base (Cat no. 19-090-843, Fisher
# 611 Scientific, MA, USA) to the skin. We also included animal groups treated with only petroleum
# 612 jelly or with 2% commercial mupirocin ointment as negative and positive controls, respectively.
# 613 For pain management, we used the analgesic buprenorphine SR (0.05 mg/kg).
# 614 After 24 h of treatment, we euthanized the animals, separated the skin from the underlying
# 615 fascia and muscle tissue, and excised about 2 cm2 of skin from the infected area. We ground the
# 616 skin in 1ml of PBS buffer (Gibco, MD, USA). We serially diluted 100 µl of the solution in PBS
# 617 and plated it on Remel™ TSA plates (Fisher, MA, USA) to estimate viable colony counts after 18
# 618 h of incubation at 37 °C. Further, we added 10 µl of EDTA-Free, protease inhibitor cocktail Set III
# 619 (Millipore Sigma, MA, USA) to 500 µl of the ground skin PBS solution for cytokine estimation.
# 620 The Cytokine Core, LLC (Indianapolis, IN, USA) performed the cytokine concentration analysis
# HepG2 cells = experiment: Mammalian cell cytotoxicity assay
# Method: 410 the HepG2 cells at 37°C in 5% CO2 in Dulbecco’s Modified Eagle Medium (DMEM) (Gibco, MA,
# We harvested and resuspended cells in fresh DMEM
# Method for S. aureus isolates: 305 Minimal inhibitory concentration (MIC) assay
# 306 To determine the minimum concentration of peptide that inhibits the growth of bacteria,
# 307 termed as the minimal inhibitory concentration (MIC), we used the broth microdilution method
# 308 described by the Clinical and Laboratory Standards Institute (4). We made serial dilutions of 10×
# 309 concentrated peptides (10 µl) in duplicate in 96-well plates (Cat no. 3595, Corning, NY, USA).
# 310 We added 90 µl of logarithmic-phase bacteria at 1 × 10^6 CFU/ml (in TSB medium) to the peptides
# 311 and then incubated the plates at 37°C for 18 hours. We determined the MIC using OD600
# 312 measurements taken on a Spectra Max i3x spectrophotometer (Molecular Devices, CA, USA).
substance,measurement,setting,value
H-GLFKVIKKLLKVI-NH2 [CIT-8],"Biofilm formation, biomass (crystal violet), percentage of untreated","[1]; 4 μg/ml, replicate 1",54.1113
same,"Biofilm formation, live-cell viability (XTT), percentage of untreated","[1]; 4 μg/ml, replicate 1",32.0317
same,"Biofilm formation, biomass (crystal violet), percentage of untreated","[1]; 4 μg/ml, replicate 2",76.6895
same,"Biofilm formation, live-cell viability (XTT), percentage of untreated","[1]; 4 μg/ml, replicate 2",22.3741
same,"Biofilm formation, biomass (crystal violet), percentage of untreated","[1]; 4 μg/ml, replicate 3",101.649
same,"Biofilm formation, live-cell viability (XTT), percentage of untreated","[1]; 4 μg/ml, replicate 3",54.6427
same,"Biofilm formation, biomass (crystal violet), percentage of untreated","[1]; 8 μg/ml, replicate 1",13.6231
same,"Biofilm formation, live-cell viability (XTT), percentage of untreated","[1]; 8 μg/ml, replicate 1",-0.6814
same,"Biofilm formation, biomass (crystal violet), percentage of untreated","[1]; 8 μg/ml, replicate 2",7.383
same,"Biofilm formation, live-cell viability (XTT), percentage of untreated","[1]; 8 μg/ml, replicate 2",-0.6073
same,"Biofilm formation, biomass (crystal violet), percentage of untreated","[1]; 8 μg/ml, replicate 3",9.789
same,"Biofilm formation, live-cell viability (XTT), percentage of untreated","[1]; 8 μg/ml, replicate 3",-0.7036
same,"Biofilm formation, biomass (crystal violet), percentage of untreated","[1]; 16 μg/ml, replicate 1",8.5978
same,"Biofilm formation, live-cell viability (XTT), percentage of untreated","[1]; 16 μg/ml, replicate 1",-0.7406
same,"Biofilm formation, biomass (crystal violet), percentage of untreated","[1]; 16 μg/ml, replicate 2",7.669
same,"Biofilm formation, live-cell viability (XTT), percentage of untreated","[1]; 16 μg/ml, replicate 2",-0.7184
same,"Biofilm formation, biomass (crystal violet), percentage of untreated","[1]; 16 μg/ml, replicate 3",8.622
same,"Biofilm formation, live-cell viability (XTT), percentage of untreated","[1]; 16 μg/ml, replicate 3",-0.5258
same,"Biofilm formation, biomass (crystal violet), percentage of untreated","[1]; 32 μg/ml, replicate 1",7.502
same,"Biofilm formation, live-cell viability (XTT), percentage of untreated","[1]; 32 μg/ml, replicate 1",-0.6814
same,"Biofilm formation, biomass (crystal violet), percentage of untreated","[1]; 32 μg/ml, replicate 2",7.074
same,"Biofilm formation, live-cell viability (XTT), percentage of untreated","[1]; 32 μg/ml, replicate 2",-0.6962
same,"Biofilm formation, biomass (crystal violet), percentage of untreated","[1]; 32 μg/ml, replicate 3",7.812
same,"Biofilm formation, live-cell viability (XTT), percentage of untreated","[1]; 32 μg/ml, replicate 3",-0.5036
same,Concentration killing 50% of biofilm cells during biofilm formation,"[1]; XTT live-cell viability, 24 h",4 µg/mL
same,MBIC50 (biomass reduced by 50%),"[1]; crystal violet, 24 h",6 µg/mL
same,"Bacterial load from skin specimens, prophylactic model","[2]; 1% ointment 10 minutes after infection, animal 1",11428571
same,"Bacterial load from skin specimens, prophylactic model","[2]; 1% ointment 10 minutes after infection, animal 2",16000000
same,"Bacterial load from skin specimens, prophylactic model","[2]; 1% ointment 10 minutes after infection, animal 3",1555556
same,"Bacterial load from skin specimens, prophylactic model","[2]; 1% ointment 10 minutes after infection, animal 4",3636364
same,"Bacterial load from skin specimens, prophylactic model","[2]; 1% ointment 10 minutes after infection, animal 5",6000000
same,"Bacterial load from skin specimens, prophylactic model","[2]; 1% ointment 10 minutes after infection, animal 6",3111111
same,"Bacterial load from skin specimens, prophylactic model","[2]; 1% ointment 10 minutes after infection, animal 7",2250000
same,"Bacterial load from skin specimens, prophylactic model","[2]; 1% ointment 10 minutes after infection, animal 8",2200000
same,"Bacterial load from skin specimens, prophylactic model","[2]; 1% ointment 10 minutes after infection, animal 9",4210526
same,"Bacterial load from skin specimens, prophylactic model","[2]; 1% ointment 10 minutes after infection, animal 10",6153846
same,"Bacterial load from skin specimens, prophylactic model","[2]; 1% ointment 10 minutes after infection, animal 11",4000000
same,"Bacterial load from skin specimens, prophylactic model","[2]; 1% ointment 10 minutes after infection, animal 12",6060606
same,"Reduction of S. aureus MW2 burden vs vehicle, prophylactic model",[2]; 1% w/w ointment,1.7 log
same,"Reduction of S. aureus MW2 burden, repeat of prophylactic model",[2]; 1% w/w,1.4 log
same,"Bacterial load from skin specimens, prophylactic model","[2]; 2% ointment 10 minutes after infection, animal 1",1000000
same,"Bacterial load from skin specimens, prophylactic model","[2]; 2% ointment 10 minutes after infection, animal 2",1142857
same,"Bacterial load from skin specimens, prophylactic model","[2]; 2% ointment 10 minutes after infection, animal 3",2400000
same,"Bacterial load from skin specimens, prophylactic model","[2]; 2% ointment 10 minutes after infection, animal 4",444444
same,"Bacterial load from skin specimens, prophylactic model","[2]; 2% ointment 10 minutes after infection, animal 5",1684211
same,"Bacterial load from skin specimens, prophylactic model","[2]; 2% ointment 10 minutes after infection, animal 6",4000000
same,"Bacterial load from skin specimens, prophylactic model","[2]; 2% ointment 10 minutes after infection, animal 7",666667
same,"Bacterial load from skin specimens, prophylactic model","[2]; 2% ointment 10 minutes after infection, animal 8",923077
same,"Bacterial load from skin specimens, prophylactic model","[2]; 2% ointment 10 minutes after infection, animal 9",909091
same,"Bacterial load from skin specimens, prophylactic model","[2]; 2% ointment 10 minutes after infection, animal 10",4923077
same,"Bacterial load from skin specimens, prophylactic model","[2]; 2% ointment 10 minutes after infection, animal 11",3666667
same,"Bacterial load from skin specimens, prophylactic model","[2]; 2% ointment 10 minutes after infection, animal 12",1200000
same,"Reduction of bacterial burden, mouse model of MRSA skin infection",[2]; 2% w/w in petroleum jelly (abstract),2.3 log10
same,"Reduction of S. aureus MW2 burden vs vehicle, prophylactic model",[2]; 2% w/w ointment,2.3 log
same,"Reduction of S. aureus MW2 burden, repeat of prophylactic model",[2]; 2% w/w,2.1 log
same,MIC,S. aureus isolates; S. aureus AR0215 (VISA),4 µg/mL
same,MIC,S. aureus isolates; S. aureus AR0216 (VISA),8 µg/mL
same,MIC,S. aureus isolates; S. aureus AR0217 (VISA),4 µg/mL
same,MIC,S. aureus isolates; S. aureus AR0219 (VISA),8 µg/mL
same,MIC,S. aureus isolates; S. aureus AR0225 (VISA),4 µg/mL
same,MIC,S. aureus isolates; S. aureus BF1 (clinical isolate),4 µg/mL
same,MIC,S. aureus isolates; S. aureus BF2 (clinical isolate),8 µg/mL
same,MIC,S. aureus isolates; S. aureus BF3 (clinical isolate),8 µg/mL
same,MIC,S. aureus isolates; S. aureus BF4 (clinical isolate),4 µg/mL
same,MIC,S. aureus isolates; S. aureus BF5 (clinical isolate),4 µg/mL
same,MIC,S. aureus isolates; S. aureus BF6 (clinical isolate),4 µg/mL
same,MIC,S. aureus isolates; S. aureus BF7 (clinical isolate),4 µg/mL
same,MIC,S. aureus isolates; S. aureus BF8 (clinical isolate),4 µg/mL
same,MIC,S. aureus isolates; S. aureus BF9 (clinical isolate),4 µg/mL
same,MIC,S. aureus isolates; S. aureus BF10 (clinical isolate),4 µg/mL
same,MIC,S. aureus isolates; S. aureus BF11 (clinical isolate),4 µg/mL
same,MIC,S. aureus isolates; S. aureus JE2 (MRSA),4 µg/mL
same,MIC,S. aureus isolates; S. aureus VRS1 (VRSA),4 µg/mL
same,"MIC against various VRSA, MRSA, VISA, and S. aureus clinical isolates",S. aureus isolates; range over the isolates of Table 3,4 to 8 µg/mL
same,"HepG2 cell viability, Sup. Fig. 4B","HepG2 cells; 4 μg/ml, replicate 1",110.665
same,"HepG2 cell viability, Sup. Fig. 4B","HepG2 cells; 4 μg/ml, replicate 2",94.3717
same,"HepG2 cell viability, Sup. Fig. 4B","HepG2 cells; 4 μg/ml, replicate 3",107.525
same,"HepG2 cell viability, Sup. Fig. 4B","HepG2 cells; 8 μg/ml, replicate 1",104.83
same,"HepG2 cell viability, Sup. Fig. 4B","HepG2 cells; 8 μg/ml, replicate 2",93.4852
same,"HepG2 cell viability, Sup. Fig. 4B","HepG2 cells; 8 μg/ml, replicate 3",105.572
same,"HepG2 cell viability, Sup. Fig. 4B","HepG2 cells; 16 μg/ml, replicate 1",122.471
same,"HepG2 cell viability, Sup. Fig. 4B","HepG2 cells; 16 μg/ml, replicate 2",104.62
same,"HepG2 cell viability, Sup. Fig. 4B","HepG2 cells; 16 μg/ml, replicate 3",109.473
same,"HepG2 cell viability, Sup. Fig. 4B","HepG2 cells; 32 μg/ml, replicate 1",107.545
same,"HepG2 cell viability, Sup. Fig. 4B","HepG2 cells; 32 μg/ml, replicate 2",100.768
same,"HepG2 cell viability, Sup. Fig. 4B","HepG2 cells; 32 μg/ml, replicate 3",106.994
same,"HepG2 cell viability, Sup. Fig. 4B","HepG2 cells; 64 μg/ml, replicate 1",70.5897
same,"HepG2 cell viability, Sup. Fig. 4B","HepG2 cells; 64 μg/ml, replicate 2",64.1784
same,"HepG2 cell viability, Sup. Fig. 4B","HepG2 cells; 64 μg/ml, replicate 3",64.2134
same,"HepG2 cell viability, Sup. Fig. 4B","HepG2 cells; 128 μg/ml, replicate 1",32.858
same,"HepG2 cell viability, Sup. Fig. 4B","HepG2 cells; 128 μg/ml, replicate 2",28.9912
same,"HepG2 cell viability, Sup. Fig. 4B","HepG2 cells; 128 μg/ml, replicate 3",25.6954
same,LD50 (concentration needed to kill 50% of HEPG2 cells),HepG2 cells; human liver-derived HEPG2 cells,96 µg/mL
